Test results taken from ChEMBL document CHEMBL1154559, “New bisindole alkaloids of the topsentin and hamacanthin classes from the Mediterranean marine sponge Rhaphisia lacazei” (J Nat Prod, 2000).
Converted amounts (≈) assume the structure as drawn.

Test: Cytotoxicity against human NSCLC-N6 cells by colorimetric assay
Type: functional, cell-based

| SMILES | IC50 |
| --- | --- |
| O=C(c1nc(-c2c[nH]c3ccccc23)c[nH]1)c1c[nH]c2cc(O)ccc12 [TOPSENTIN] | 12 µg/mL (≈ 35.1 µM) |
| O=C(c1nc(-c2c[nH]c3cc(Br)ccc23)c[nH]1)c1c[nH]c2cc(O)ccc12 [BROMOTOPSENTIN] | 6.3 µg/mL (≈ 15 µM) |
